The source of these data is patent US12122816B2, “Long acting peptide tyrosine tyrosine (PYY) analogs and methods of use” (Intarcia Therapeutics, Inc., priority 2020, dated 2024).

As a reminder, the solubility is the concentration that dissolves in the medium under given conditions. As a reminder, the EC50 is the concentration needed to bring the measured effect to its halfway point. High values mean lower potency in that assay, low ones higher potency in that assay. What is called clearance is the volume of plasma or blood freed of the substance per unit of time. Low values mean inefficient removal, high ones efficient removal. Broadly, the bioavailability is the share of a dose that reaches the circulation, judged against a reference dose that is usually intravenous. Read a low bioavailability as little systemic uptake.

No end group written: not given here.

A short description of series [1]: Solubility in DI water at room temperature (visual inspection). Conditions: DI water, TFA salt form, read-out: Solubility (in Water, RT). Type of series: physicochemical. The protocol: The analog polypeptides described herein were tested for solubility in saline or in aqueous (DI water) at room temperature. Samples were visually inspected for clarity of the sample, any appearance of turbidity or haziness.

Series [2] in a line: Stability in water or saline (1 mg/ml) at 37° C., purity by LC/MS and HPLC. Type of series: physicochemical. The note with it: TFA salt form.
For a further series, the target named is T1, human Y2 receptor (Homo sapiens, UniProt P49146).
T1 sequence (P49146 1-381): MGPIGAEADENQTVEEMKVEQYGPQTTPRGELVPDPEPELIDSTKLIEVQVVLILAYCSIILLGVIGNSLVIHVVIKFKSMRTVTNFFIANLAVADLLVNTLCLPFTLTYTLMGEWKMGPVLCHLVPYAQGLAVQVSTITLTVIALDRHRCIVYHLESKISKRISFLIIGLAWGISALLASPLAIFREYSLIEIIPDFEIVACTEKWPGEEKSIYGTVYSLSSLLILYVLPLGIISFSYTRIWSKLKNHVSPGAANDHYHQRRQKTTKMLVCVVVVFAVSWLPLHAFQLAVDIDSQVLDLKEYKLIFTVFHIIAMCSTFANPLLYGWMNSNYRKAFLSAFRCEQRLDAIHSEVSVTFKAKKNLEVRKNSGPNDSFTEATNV
Description: NPY receptor functional assay (cAMP, HEK-CNG cells, ACTOne membrane potential dye). Conditions: NPY2R pEC50, HEK-CNG cells; standard PYY(3-36); species (human or rat) not given. Type of series: cell-based. The procedure, abridged:
(§1)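 HEK-CNG cells stably expressing each human receptor; peptides added in triplicate for 50 minutes at room temperature, with agonism read as decreased isoproterenol-induced membrane potential dye signal (final/initial read).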

For another series, the target named is T2, human Y5 receptor (Homo sapiens, UniProt Q15761).
T2 sequence (Q15761 1-445): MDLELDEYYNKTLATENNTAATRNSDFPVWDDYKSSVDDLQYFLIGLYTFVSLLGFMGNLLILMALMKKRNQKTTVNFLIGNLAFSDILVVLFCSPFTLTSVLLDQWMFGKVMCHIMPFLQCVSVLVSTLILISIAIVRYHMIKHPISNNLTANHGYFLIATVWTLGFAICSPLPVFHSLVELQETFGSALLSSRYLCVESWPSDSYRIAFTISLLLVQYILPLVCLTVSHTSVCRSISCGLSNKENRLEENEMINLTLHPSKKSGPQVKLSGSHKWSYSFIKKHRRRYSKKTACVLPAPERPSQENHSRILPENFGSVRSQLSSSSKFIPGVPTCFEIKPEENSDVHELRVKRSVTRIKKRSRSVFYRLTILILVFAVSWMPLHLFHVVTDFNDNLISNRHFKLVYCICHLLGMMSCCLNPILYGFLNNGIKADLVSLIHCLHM
The description is as above. Type of series: cell-based. The note with it: NPY5R pEC50, HEK-CNG cells; standard NPY; species (human or rat) not given. The method, boiled down:
as §1

The next series concerns the target human Y4 receptor (Homo sapiens, UniProt P50391). Described as above. In kind it is cell-based. The note with it: standard PP, species (human or rat) not given. The procedure, abridged: as §1
Series [3] in a line: Intravenous infusion pharmacokinetics to assess clearance (CL). In kind it is in vivo, Sprague-Dawley rats. Conditions: male, Sprague-Dawley, plasma, rat, 1-hour IV infusion, 0.033 mg/kg.
Description: Peptides were dissolved in 0.05% Tween-20 in PBS (pH7.4) and administered as a 1-hour subcutaneous infusion to non-fasted male Sprague-Dawley rats (n=3 per group) at a final dose of 0.033 mg/kg via a cannula placed into the femoral vein. Formulations were administered at a rate of 0.150 mL/h/kg. […] Plasma was prepared by centrifugation and stored at −80° C. until analysis.
(§2) A 70 μL aliquot of each plasma sample was placed into to a 96-well plate. To each well was added 210 μL of 0.1% TFA in 2:1 ethanol:acetonitrile containing an appropriate internal standard. Plates were vortex mixed for 10 min at 1300 rpm, and then centrifuged for 10 min at 500×g. Supernatants (210 μL) were placed into a clean 96-well plate and evaporated under a nitrogen stream at 45° C. Residues were reconstituted in 80 μL of 20% acetonitrile (aq) containing 0.1% formic acid.
(§3) All calibration standards were prepared in control rat plasma containing K2EDTA and protease inhibitor cocktail.
(§4) Samples were injected onto a 2.1×50 mm reverse phase C18 analytical column, typically a Waters CORTECS UPLC C18+, 1.6 μm (Waters Corporation, Milford, MA) or similar. […] Typical flow rates were 550 μL/min. The column temperature was held constant at 45° C. Peptides were quantified by monitoring one or more product ions produced from a multiply charged parent ion.
Series [4] is described as follows: Subcutaneous bolus injection pharmacokinetics to assess bioavailability (F). Type of series: in vivo, Sprague-Dawley rats. The note with it: male, Sprague-Dawley, plasma; rat, SC bolus 0.1 mg/kg.
Description: Peptides were dissolved in sterile saline and administered to non-fasted male Sprague-Dawley rats (n=3 per group) at a dose of 0.1 mg/kg via a single bolus injection into the subcutaneous space between the scapulae. […] Plasma was prepared by centrifugation and stored at −80° C. until analysis.
as §2, §3, §4
For series [5] the following is noted: cited from earlier work.

Sequence of human Y4 receptor (P50391 whole entry, the tested form may be a part): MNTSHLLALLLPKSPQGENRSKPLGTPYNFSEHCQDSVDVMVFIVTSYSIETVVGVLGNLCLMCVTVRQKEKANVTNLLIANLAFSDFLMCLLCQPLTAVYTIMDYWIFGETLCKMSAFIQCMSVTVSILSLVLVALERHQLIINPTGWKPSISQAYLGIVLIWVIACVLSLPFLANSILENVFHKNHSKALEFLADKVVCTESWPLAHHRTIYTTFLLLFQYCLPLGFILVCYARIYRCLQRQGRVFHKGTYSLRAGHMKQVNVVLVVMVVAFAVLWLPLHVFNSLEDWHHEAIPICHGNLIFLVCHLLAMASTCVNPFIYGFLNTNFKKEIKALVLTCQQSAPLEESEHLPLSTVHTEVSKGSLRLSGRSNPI

For the compound `CC(C)C[C@H](NC(=O)[C@H](CC(=O)O)NC(=O)[C@H](CCCCN)NC(=O)[C@H](Cc1ccc(O)cc1)NC(=O)[C@H](Cc1ccc(O)cc1)NC(=O)[C@H](CCCNC(=N)N)NC(=O)[C@H](CC(N)=O)NC(=O)[C@H](Cc1c[nH]c2ccccc12)NC(=O)[C@H](CCC(=O)O)NC(=O)[C@H](CCC(=O)O)NC(=O)[C@@H]1CCCN1C(=O)[C@H](CO)NC(=O)[C@H](C)NC(=O)[C@H](CC(=O)O)NC(=O)[C@H](CCCCNC(=O)CC[C@H](NC(=O)CC[C@H](NC(=O)CCCCCCCCCCCCCCCCCCC(=O)O)C(=O)O)C(=O)O)NC(=O)CNC(=O)[C@@H]1CCCN1C(=O)[C@H](CCCCN)NC(=O)[C@H](CCC(=O)O)NC(=O)[C@@H]1CCCN1C(=O)[C@H](CCCCN)NC(=O)[C@@H]1CCCN1)C(=O)N[C@@H](CCCNC(=N)N)C(=O)N[C@@H](Cc1c[nH]cn1)C(=O)N[C@@H](Cc1ccc(O)cc1)C(=O)N[C@@H](CC(C)C)C(=O)N[C@@H](CC(N)=O)C(=O)N[C@@H](Cc1c[nH]c2ccccc12)C(=O)N[C@@H](CC(C)C)C(=O)N[C@H](C(=O)N[C@@H](CCCNC(=N)N)C(=O)N[C@@H](CCC(N)=O)C(=O)N[C@@H](CCCNC(=N)N)C(=O)N[C@@H](Cc1ccccc1)C(N)=O)[C@@H](C)O` [Compound A19], in series [1], the solubility stood at 59 mg/mL. In series [2], the “Stability (37° C./RT, T0: Mar. 25, 2020)” value is 88.8. Further, the EC50 at human Y2 receptor is 0.0316 nM; on human Y5 receptor, 2 nM.
`CC(C)C[C@H](NC(=O)[C@H](Cc1ccc(O)cc1)NC(=O)[C@H](Cc1c[nH]cn1)NC(=O)[C@H](CCCNC(=N)N)NC(=O)[C@H](C)NC(=O)[C@H](CC(=O)O)NC(=O)[C@H](C)NC(=O)[C@H](Cc1ccc(O)cc1)NC(=O)[C@H](Cc1ccc(O)cc1)NC(=O)[C@H](CCCNC(=N)N)NC(=O)[C@H](CC(N)=O)NC(=O)[C@H](Cc1c[nH]c2ccccc12)NC(=O)[C@H](CCC(=O)O)NC(=O)[C@H](CCC(=O)O)NC(=O)[C@@H]1CCCN1C(=O)[C@H](CO)NC(=O)[C@H](C)NC(=O)[C@H](CC(=O)O)NC(=O)[C@H](CCCCN)NC(=O)[C@H](CCCCNC(=O)CC[C@H](NC(=O)CC[C@H](NC(=O)CCCCCCCCCCCCCCCCCCC(=O)O)C(=O)O)C(=O)O)NC(=O)[C@@H]1CCCN1C(=O)[C@H](C)NC(=O)[C@H](CCC(=O)O)NC(=O)[C@@H]1CCCN1C(=O)[C@H](CCCCN)NC(=O)[C@@H]1CCCN1)C(=O)N[C@@H](CC(N)=O)C(=O)N[C@@H](Cc1c[nH]c2ccccc12)C(=O)N[C@@H](CC(C)C)C(=O)N[C@H](C(=O)N[C@@H](CCCNC(=N)N)C(=O)N[C@@H](CCC(N)=O)C(=O)N[C@@H](CCCNC(=N)N)C(=O)N(C)[C@@H](Cc1ccc(O)cc1)C(N)=O)[C@@H](C)O` [Compound A7] gave a 50% effective concentration (EC50) on human Y2 receptor of 0.2 nM. Also, the “NPY4R pEC50” value on human Y4 receptor was “inactive”. The compound also displayed a clearance in series [3] of 0.326 mL/min/kg. Besides, in series [3] (read-out: IV t1/2 (converted)), the half-life was 6.44 h. For the same compound, the bioavailability in series [4] was 66.7%.
Consider “human amylin: 37-residue polypeptide hormone co-secreted with insulin from pancreatic β-cells (KCNTATCATQRLANFLVHSSNNFGAILSSTNVGSNTY; not fully specified (C-terminus, bridges); cysteine pairing not given here; UniProt P10997 34-70, looked up)”, for which the half-life in serum result in series [5] was “about 13 minutes”.
